Results from patent US12371454B2, “Cyclic peptide compound having Kras inhibitory action” (priority 2019, dated 2025).
Starred links: 1 amine or outer side, 2 acyl side, 3 side chain; linkers in the order of their positions; H or OH if unused. Positions of bridges follow the written chain, without caps; N, C: chain ends. Non-standard residues stand in square brackets, D forms with d. Residues, ends and D or L forms follow the SMILES beside them. *: point of attachment. hPhe(3-Cl-4-CF3) = N[C@@H](CCc1ccc(C(F)(F)F)c(Cl)c1)C(=O)O; hPhe(3-F,4-CF3) = N[C@@H](CCc1ccc(C(F)(F)F)c(F)c1)C(=O)O; X71 = O=C([C@H](Cc1cc(Cl)cc(I)c1)N[*:1])[*:2]; NMePhe(2-CN) = CN[C@@H](Cc1ccccc1C#N)C(=O)O; NMePhe(3-Me) = CN[C@@H](Cc1cccc(C)c1)C(=O)O; NMePhe(4-Me) = CN[C@@H](Cc1ccc(C)cc1)C(=O)O; NMeNle(6-CHF2) = CN[C@@H](CCCCC(F)F)C(=O)O; NMeGly(cPent) = CN[C@H](C(=O)O)C1CCCC1; Phe(3-I) = N[C@@H](Cc1cccc(I)c1)C(=O)O; Pro(4,4-F2) = O=C(O)[C@@H]1CC(F)(F)CN1; Phe(2-F) = N[C@@H](Cc1ccccc1F)C(=O)O; NMeY = CN[C@@H](Cc1ccc(O)cc1)C(=O)O; NMeCha = CN[C@@H](CC1CCCCC1)C(=O)O; NMeChg = CN[C@H](C(=O)O)C1CCCCC1; NMeI = CC[C@H](C)[C@H](NC)C(=O)O; NMeD = CN[C@@H](CC(=O)O)C(=O)O; CH2CONHtBu = CC(C)(C)NC(=O)C*; NMeL = CN[C@@H](CC(C)C)C(=O)O; NMeNva = CCC[C@H](NC)C(=O)O; NMeV = CN[C@H](C(=O)O)C(C)C; d(β3hA) = C[C@@H](N)CC(=O)O; NMeAbu = CC[C@H](NC)C(=O)O; NMeS = CN[C@@H](CO)C(=O)O; Morpholide = C1CN(*)CCO1; NMeA = CN[C@@H](C)C(=O)O; NMeAib = CNC(C)(C)C(=O)O; Nle = CCCC[C@H](N)C(=O)O; Piperidide = C1CCN(*)CC1; Pyrrolidide = C1CCN(*)C1; dNMeA = CN[C@H](C)C(=O)O; Ac5c = NC1(C(=O)O)CCCC1; Aze = O=C(O)[C@@H]1CCN1; Aib = CC(C)(N)C(=O)O; Isopentyl = CC(C)CC*; NEtG = CCNCC(=O)O; Sar = CNCC(=O)O

biological target: T1, Kras and SOS1 (biotin-tagged human Kras loaded with GDP, His-tagged human SOS1) (Homo sapiens, UniProt P01116, G12D); assay: Protein-protein interaction inhibition between Kras and SOS1 (KrasGl2D-SOS PPI) using AlphaScreen; assay type: binding; conditions: AlphaScreen; biotin-tagged human Kras loaded with GDP, His-tagged human SOS1; read-out: KRAS G12D-SOS PPI IC50
T1 construct: made in house; host or cells: E. coli (stated for Kras only)
Method in brief: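 Binding between SOS1 and Kras is detected as bead-proximity luminescence: illuminate Ni-conjugated donors (680 nm), collect 520-620 nm emission from streptavidin-conjugated acceptors; Kras carries biotin and GDP loaded after purification, SOS1 carries a His tag.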

T1 sequence (P01116 1-188 isoform P01116-2 G12D): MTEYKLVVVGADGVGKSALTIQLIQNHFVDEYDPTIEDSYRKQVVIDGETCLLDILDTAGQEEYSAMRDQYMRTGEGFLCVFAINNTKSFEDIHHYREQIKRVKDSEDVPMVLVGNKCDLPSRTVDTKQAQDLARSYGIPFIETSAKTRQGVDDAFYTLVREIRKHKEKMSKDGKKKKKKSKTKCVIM

SMILES | IC50 [nM]
CCCC[C@@H]1NC(=O)[C@H](Cc2cc(Cl)cc(I)c2)NC(=O)CN(C)C(=O)[C@H](Cc2ccc(OC)cc2)N(C)C(=O)[C@@H]2CCN2C(=O)[C@H](C)N(C)C(=O)[C@H]([C@@H](C)CC)NC(=O)[C@H](CC)N(C)C(=O)C[C@@H](C(=O)N2CCCCC2)N(C)C(=O)[C@H](CC(C)C)NC(=O)C(C)(C)N(C)C1=O [Compound 1156] ([NMeAbu]I[NMeA][Aze][NMeY](Me)[Sar][X71][Nle][NMeAib]L[NMeD]-Piperidide; lactam N-11) | 140
CC[C@H](C)[C@@H]1NC(=O)[C@H](CC(C)C)N(C)C(=O)C[C@@H](C(=O)N(C)C)N(C)C(=O)[C@H]([C@@H](C)CC)N(C)C(=O)C2(CCCC2)NC(=O)[C@@H]2CCCN2C(=O)[C@H](CCc2ccc(C(F)(F)F)c(Cl)c2)NC(=O)CN(C)C(=O)[C@H](CC2CCCCC2)N(C)C(=O)CN(C)C(=O)CN(C)C1=O [Compound 1865] ([NMeL]I[Sar][Sar][NMeCha][Sar][hPhe(3-Cl-4-CF3)]P[Ac5c][NMeI][NMeD]-NMe2; lactam N-11) | 0.43
CC[C@H](C)[C@@H]1NC(=O)[C@H](CC(C)C)N(C)C(=O)C[C@@H](C(=O)N2CCOCC2)N(C)C(=O)[C@H](C2CCCCC2)N(C)C(=O)C2(CCCC2)NC(=O)[C@@H]2CC(F)(F)CN2C(=O)[C@H](CCc2ccc(C(F)(F)F)c(Cl)c2)NC(=O)CN(C)C(=O)[C@H](CC2CCCCC2)N(C)C(=O)CN(C)C(=O)CN(C)C1=O [Compound 1194] ([NMeL]I[Sar][Sar][NMeCha][Sar][hPhe(3-Cl-4-CF3)][Pro(4,4-F2)][Ac5c][NMeChg][NMeD]-Morpholide; lactam N-11) | 0.52
CC[C@H](C)[C@@H]1NC(=O)[C@H](CC(C)C)N(C)C(=O)C[C@@H](C(=O)N2CCCCC2)N(C)C(=O)[C@H](CC(C)C)NC(=O)C(C)(C)N(C)C(=O)[C@H](Cc2ccccc2F)NC(=O)[C@H](Cc2cccc(I)c2)NC(=O)CN(C)C(=O)[C@H](Cc2ccc(C)cc2)N(C)C(=O)[C@@H]2CCN2C(=O)CN(C)C1=O [Compound 638] ([NMeL]I[Sar][Aze][NMePhe(4-Me)][Sar][Phe(3-I)][Phe(2-F)][NMeAib]L[NMeD]-Piperidide; lactam N-11) | 45
CC[C@H](C)[C@@H]1NC(=O)[C@H](CC(C)C)N(C)C(=O)C[C@@H](C(=O)N2CCCC2)NC(=O)[C@H](CC(C)C)N(C)C(=O)C(C)(C)NC(=O)[C@H](CC(C)C)N(C)C(=O)[C@H](CCc2ccc(C(F)(F)F)c(F)c2)NC(=O)CN(C)C(=O)[C@H](CCCCC(F)F)N(C)C(=O)CN(C)C(=O)CN(C)C1=O [Compound 1455] ([NMeL]I[Sar][Sar][NMeNle(6-CHF2)][Sar][hPhe(3-F,4-CF3)][NMeL][Aib][NMeL]D-Pyrrolidide; lactam N-11) | 30
CC[C@H](C)[C@@H]1NC(=O)[C@H](CC(C)C)N(C)C(=O)C[C@@H](C)NC(=O)[C@H](C(C)C)N(C)C(=O)C2(CCCC2)NC(=O)[C@@H]2CCCN2C(=O)[C@H](CCc2ccc(C(F)(F)F)c(Cl)c2)NC(=O)CN(C)C(=O)[C@H](Cc2ccccc2C#N)N(C)C(=O)CN(C)C(=O)CN(C)C1=O [Compound 767] (cyclo([Ac5c][NMeV][d(β3hA)][NMeL]I[Sar][Sar][NMePhe(2-CN)][Sar][hPhe(3-Cl-4-CF3)]P)) | 24
CC[C@H](C)[C@@H]1NC(=O)[C@H](C)N(C)C(=O)C[C@@H](C)NC(=O)[C@H](C2CCCC2)N(C)C(=O)C2(CCCC2)NC(=O)[C@@H]2CCCN2C(=O)[C@H](CCc2ccc(C(F)(F)F)c(Cl)c2)NC(=O)[C@@H](C)N(C)C(=O)[C@H](Cc2cccc(C)c2)N(C)C(=O)CN(C)C(=O)CN(C)C1=O [Compound 1088] (cyclo([Ac5c][NMeGly(cPent)][d(β3hA)][NMeA]I[Sar][Sar][NMePhe(3-Me)][dNMeA][hPhe(3-Cl-4-CF3)]P)) | 170
CC[C@H](C)[C@@H]1NC(=O)[C@H](CC(C)C)N(C)C(=O)C[C@@H](C)NC(=O)[C@H](CC(C)C)N(C)C(=O)C(C)(C)NC(=O)[C@H](COCC(=O)NC(C)(C)C)N(C)C(=O)[C@H](CCc2ccc(C(F)(F)F)c(Cl)c2)NC(=O)CN(C)C(=O)[C@H](COCCC(C)C)N(C)C(=O)[C@@H]2CCN2C(=O)CN(CC)C1=O [Compound 1513] (cyclo([Aib][NMeL][d(β3hA)][NMeL]I[NEtG][Aze][NMeS](Isopentyl)[Sar][hPhe(3-Cl-4-CF3)][NMeS](CH2CONHtBu))) | 270
CCC[C@H]1C(=O)NC2(CCCC2)C(=O)N(C)[C@@H](C2CCCCC2)C(=O)N(C)[C@H](C(=O)N2CCCCC2)CC(=O)N(C)[C@@H](CC(C)C)C(=O)N[C@@H]([C@@H](C)CC)C(=O)N(C)[C@@H](C)C(=O)N2CC[C@H]2C(=O)N(C)[C@@H](CC2CCCCC2)C(=O)N(C)CC(=O)N[C@@H](CCc2ccc(C(F)(F)F)c(Cl)c2)C(=O)N1C [Compound 1113] ([NMeL]I[NMeA][Aze][NMeCha][Sar][hPhe(3-Cl-4-CF3)][NMeNva][Ac5c][NMeChg][NMeD]-Piperidide; lactam N-11) | 410
